Experimental data reported in ChEMBL document CHEMBL5375989, “Pioneering 4,11-Dioxo-4,11-dihydro-1H-anthra[2,3-d]imidazol-3-ium Compounds as Promising Survivin Inhibitors by Targeting ILF3/NF110 for Cancer Therapy” (J Med Chem, 2023).
One block for each compound: values may come before it. Activity calls are given as the source filed them. No cut-off for these calls is given here.

Key:
[1] = Drug uptake in Sprague-Dawley rat blood at 2 mg/kg measured after 2 hrs by UPLC-3Q analysis; format: ADME, organism-based; conditions: in vivo
[2] = Antiproliferative activity against mouse NIH3T3 cells assessed as inhibition of cell growth measured after 48 hrs by MTT assay; format: toxicity, cell-based; conditions: mouse, NIH3T3 cells
[3] = Antiproliferative activity against human HUVEC cells assessed as inhibition of cell growth measured after 48 hrs by MTT assay; format: toxicity, cell-based; conditions: human, HUVEC cells
[4] = Drug distribution in BALB/C nude mouse heart xenografted with human A549 cells at 2 mg/kg measured after 2 to 6 hrs by UPLC-3Q analysis; format: ADME, organism-based; conditions: in vivo, time 2-6 hrs
[5] = Toxicity in BALB/c mouse assessed as appearance of condensed nuclei at 2 mg/kg by H and E staining based analysis; format: organism-based; conditions: in vivo
[6] = Toxicity in BALB/c mouse assessed as appearance of renal tubular necrosis in cortex at 2 mg/kg by H and E staining based analysis; format: organism-based; conditions: in vivo
[7] = Toxicity in BALB/c mouse assessed as morphological changes with karyopyknosis in spleen at 2 mg/kg by H and E staining based analysis; format: organism-based; conditions: in vivo
[8] = target: T1, Interleukin enhancer-binding factor 3 (Homo sapiens, UniProt Q12906); assay: Binding affinity to ILF3 (unknown origin) assessed as dissociation constant at upto 1 uM by SPR method
T1 sequence (Q12906 whole entry): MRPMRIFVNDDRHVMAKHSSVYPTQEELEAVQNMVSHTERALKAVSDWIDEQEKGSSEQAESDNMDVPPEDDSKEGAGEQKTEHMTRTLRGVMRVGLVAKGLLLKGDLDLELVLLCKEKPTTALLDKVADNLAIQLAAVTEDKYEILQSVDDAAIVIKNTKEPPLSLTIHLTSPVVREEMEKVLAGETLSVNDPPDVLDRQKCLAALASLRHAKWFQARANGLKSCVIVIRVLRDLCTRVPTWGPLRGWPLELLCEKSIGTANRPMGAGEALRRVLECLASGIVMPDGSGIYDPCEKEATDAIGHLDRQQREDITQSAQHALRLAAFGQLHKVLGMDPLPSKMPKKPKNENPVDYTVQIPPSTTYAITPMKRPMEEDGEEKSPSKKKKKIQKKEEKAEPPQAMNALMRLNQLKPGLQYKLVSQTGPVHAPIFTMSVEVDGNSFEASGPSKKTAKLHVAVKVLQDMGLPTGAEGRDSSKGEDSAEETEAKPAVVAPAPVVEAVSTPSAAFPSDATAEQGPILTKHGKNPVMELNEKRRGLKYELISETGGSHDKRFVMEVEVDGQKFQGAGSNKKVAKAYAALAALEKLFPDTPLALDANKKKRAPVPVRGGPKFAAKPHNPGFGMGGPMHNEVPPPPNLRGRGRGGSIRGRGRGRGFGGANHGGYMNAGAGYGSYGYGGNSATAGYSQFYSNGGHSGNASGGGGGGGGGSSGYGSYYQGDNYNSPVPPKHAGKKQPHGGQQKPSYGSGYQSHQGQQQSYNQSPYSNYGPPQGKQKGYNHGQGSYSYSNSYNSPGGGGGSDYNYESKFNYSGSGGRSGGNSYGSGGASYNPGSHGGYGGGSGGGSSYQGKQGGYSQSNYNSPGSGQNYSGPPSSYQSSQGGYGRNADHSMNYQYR

[9] = Toxicity in BALB/c mouse assessed as varying degree of multifocal alveolar luminal hemorrhage at 2 mg/kg by H and E staining based analysis; format: organism-based; conditions: in vivo
[10] = Toxicity in BALB/c mouse assessed as morphological changes with karyorrhexis in spleen at 2 mg/kg by H and E staining based analysis; format: organism-based; conditions: in vivo
[11] = Drug metabolism in BALB/C nude mouse kidney xenografted with human A549 cells at 2 mg/kg measured after 2 to 6 hrs by UPLC-3Q analysis; format: ADME, organism-based; conditions: in vivo, time 2-6 hrs
[12] = Selectivity index, ratio of IC50 for mouse L929 cells to IC50 for human A549 cells; format: toxicity; conditions: L929 cells and A549 cells, read-out: Ratio IC50
[13] = Antiproliferative activity against human MRC5 cells assessed as inhibition of cell growth measured after 48 hrs by MTT assay; format: toxicity, cell-based; conditions: human, MRC5 cells
[14] = Toxicity in BALB/c mouse assessed as disappearance of nuclei at 2 mg/kg by H and E staining based analysis; format: organism-based; conditions: in vivo
A549 [15] = assay: Antitumor activity against human A549 cells xenografted in BALB/c nude mouse assessed as decrease in tumor cell proliferation at 2 mg/kg measured after 14 days by PCNA staining based analysis; format: functional, organism-based; conditions: time 14.0 day
[16] = Toxicity in BALB/c nude mouse assessed as effect on body weight at 2 mg/kg, sc administered every 2 days for 14 days; format: organism-based; conditions: in vivo, 336 h, time 14 day
[17] = Toxicity in BALB/c nude mouse assessed as side effects at 2 mg/kg, sc administered every 2 days for 14 days; format: organism-based; conditions: in vivo, 336 h, time 14 day
A549 [18] = assay: Antitumor activity against human A549 cells xenografted in BALB/c nude mouse assessed as increase in apoptosis at 2 mg/kg measured after 14 days by tunel staining based analysis; format: functional, organism-based; conditions: time 14.0 day
[19] = Toxicity in BALB/c mouse assessed as appearance of severe damage to spleen tissue at 2 mg/kg by H and E staining based analysis; format: organism-based; conditions: in vivo
A549 [20] = assay: Antitumor activity against human A549 cells xenografted in BALB/c nude mouse assessed as inhibition of tumor growth at 2 mg/kg, sc administered every 2 days for 14 days; format: functional, organism-based; conditions: time 14.0 day
A549 [21] = assay: Antitumor activity against human A549 cells xenografted in BALB/c nude mouse assessed as appearance of various size of tumor necrosis at 2 mg/kg measured after 14 days by H and E staining based analysis; format: functional, organism-based; conditions: time 14.0 day
[22] = Toxicity in BALB/c mouse assessed as appearance of acidophilic degeneration of myocardial cells at 2 mg/kg by H and E staining based analysis; format: organism-based; conditions: in vivo
A549 [23] = assay: Antitumor activity against human A549 cells xenografted in BALB/c nude mouse assessed as decrease in tumor cell proliferation at 2 mg/kg measured after 14 days by Ki67 staining based analysis; format: functional, organism-based; conditions: time 14.0 day
[24] = Toxicity in BALB/c mouse assessed as appearance of spotty necrosis of hepatocytes at 2 mg/kg by H and E staining based analysis; format: organism-based; conditions: in vivo

Drug uptake [1]: Not Active
Drug uptake [4]: Active
Kd [8]: 571 nM
Drug metabolism [11]: Metabolite_Detected
Compound: COCCn1c2c([n+](Cc3cnccn3)c1C)C(=O)c1ccccc1C2=O.[Br-] [SEPANTRONIUM BROMIDE]
IC50 at 48 h [2]: 13.6 µM
IC50 at 48 h [3]: 920 nM
Activity [5]: Toxic
Activity [6]: Toxic
Activity [7]: Toxic
Activity [9]: Toxic
Activity [10]: Toxic
selectivity ratio [12]: 970
IC50 at 48 h [13]: 1940 nM
Activity [14]: Toxic

Compound: COc1cccc2c1C(=O)c1c(O)c3c(c(O)c1C2=O)C[C@@](O)(C(=O)CO)C[C@@H]3O[C@H]1C[C@H](N)[C@H](O)[C@H](C)O1 [DOXORUBICIN]
Activity (A549 [15]): Active
Activity [16]: Toxic
Activity [17]: Toxic
Activity (A549 [18]): Active
Activity [19]: Toxic
Activity (A549 [20]): Active
Activity (A549 [21]): Active
Activity [22]: Toxic
Activity (A549 [23]): Active
Activity [24]: Toxic
